Measurements published in patent US10844045B2, “Pharmaceutical salts N-(2-(2-(dimethylamino)ethoxy)-4-methoxy-5-((4-(1-methyl-1H-indol-3-yl)pyrimidin-2-yl)amino)phenyl)acrylamide and crystalline forms thereof” (Beta Pharma, Inc., priority 2016, dated 2020).
Counter-ions that a name gives are not always drawn. Like-named read-outs stand apart in the source and are kept apart here.

What was measured:
[1] = Dynamic vapor sorption (DVS); assay type: physicochemical; conditions: for hygroscopicity classification according to DVS results / weight gain (DVS): from 0 to 80% RH
[2] = Solubility of salt forms; assay type: physicochemical; conditions: for Final pH: final pH of the solubility test
[3] = test system: kinase domain of the T790M double mutant; conditions: cited from earlier work

Row | SMILES | hygroscopicity classification according to DVS results [1] | weight gain (DVS) [1] | DVS Sorption ([1]; listed as 2 (Form 2A)) | Solubility [2] | Final pH [2] | inhibition of the kinase domain of the T790M double mutant [3] | DVS Sorption [1] | Solubility ([2]; read-out: Solubility)
1 | C=CC(=O)Nc1cc(Nc2nccc(-c3cn(C)c4ccccc34)n2)c(OC)cc1OCCN(C)C [Compound 2, N-(2-(2-(Dimethylamino)ethoxy)-4-methoxy-5-((4-(1-methyl-1H-indol-3-yl)pyrimidin-2-yl)amino)phenyl)acrylamide methanesulfonate (1:1)] | hygroscopic | 14.44% | 0.91% | >53000 µg/mL | 4.9 |  |  | 
2 | C=CC(=O)Nc1cc(Nc2nccc(-c3cn(C)c4ccccc34)n2)c(OC)cc1OCCN(C)C [Compound 1, N-(2-(2-(Dimethylamino)ethoxy)-4-methoxy-5-((4-(1-methyl-1H-indol-3-yl)pyrimidin-2-yl)amino)phenyl)acrylamide] |  |  |  | 50 µg/mL | 6.2 | effectively inhibits |  | 
3 | C=CC(=O)Nc1cc(Nc2nccc(-c3cn(C)c4ccccc34)n2)c(OC)cc1OCCN(C)C.Cc1ccc(S(=O)(=O)O)cc1 [Compound 5, N-(2-(2-(Dimethylamino)ethoxy)-4-methoxy-5-((4-(1-methyl-1H-indol-3-yl)pyrimidin-2-yl)amino)phenyl)acrylamide p-toluenesulfonate (1:1)] | slightly hygroscopic | 1.86% |  |  | 5.8 |  | 1.86% | 530 µg/mL
4 | C=CC(=O)Nc1cc(Nc2nccc(-c3cn(C)c4ccccc34)n2)c(OC)cc1OCCN(C)C [3 (Form 2B), N-(2-(2-(Dimethylamino)ethoxy)-4-methoxy-5-((4-(1-methyl-1H-indol-3-yl)pyrimidin-2-yl)amino)phenyl)acrylamide methanesulfonate (1:1)] |  |  |  |  |  |  | 14.44% | 
5 | C=CC(=O)Nc1cc(Nc2nccc(-c3cn(C)c4ccccc34)n2)c(OC)cc1OCCN(C)C [Compound 4, N-(2-(2-(Dimethylamino)ethoxy)-4-methoxy-5-((4-(1-methyl-1H-indol-3-yl)pyrimidin-2-yl)amino)phenyl)acrylamide sulfate (1:1)] | hygroscopic | 10.60% |  | >79000 µg/mL | 2.4 |  | 10.60% | 
6 | C=CC(=O)Nc1cc(Nc2nccc(-c3cn(C)c4ccccc34)n2)c(OC)cc1OCCN(C)C.Cl [Compound 3, N-(2-(2-(Dimethylamino)ethoxy)-4-methoxy-5-((4-(1-methyl-1H-indol-3-yl)pyrimidin-2-yl)amino)phenyl)acrylamide hydrochloride (1:1)] | slightly hygroscopic | 0.76% |  |  | 6.0 |  | 0.76% | 810 µg/mL
7 | C=CC(=O)Nc1cc(Nc2nccc(-c3cn(C)c4ccccc34)n2)c(OC)cc1OCCN(C)C [Compound 6, N-(2-(2-(Dimethylamino)ethoxy)-4-methoxy-5-((4-(1-methyl-1H-indol-3-yl)pyrimidin-2-yl)amino)phenyl)acrylamide citrate (1:1)] |  |  |  | 6900 µg/mL | 4.6 |  |  | 
